Entries after “also recorded” stand apart in the source; their conditions may differ.
Tests used:
[1] = system: Collagen-Induced Arthritis (CIA) mouse model; assay: Collagen-induced arthritis (CIA) mouse model; type: in vivo, DBA-1 mice; conditions: 50 mg/kg dose, compared to the vehicle
Excerpt: Female DBA-1 mice (8-9 weeks old) were used in the CIA mouse model. This model is widely used to evaluate efficacy of immunomodulatory drugs on autoimmune diseases, such as arthritis. DBA/1 mice develop collagen-induced arthritis (CIA) after immunization with bovine type II collagen emulsified in complete Freund's adjuvant (CFA), followed by a booster dose 21 days later. Both the immunizations were given subcutaneously, approximately 25 mm from the base of the tail on opposite sides. Immunizations were performed under a short duration isoflurane anesthesia. Mice were evaluated for the disease progression up to 45 days. […] Statistical significance was determined using Two-way ANOVA with multiple comparison tests to compare all groups to the vehicle.

[2] = system: Imiquimod (IMQ)-induced psoriasis mouse model; assay: Imiquimod (IMQ)-induced psoriasis mouse model; type: in vivo, BALB/c female mice; conditions: 15 mg/kg PO BID
Description: A comparative study was performed to evaluate the efficacy of the deuterated-inhibitor Example 1 to Example A in the mouse model of psoriasis. Briefly, BALB/c female mice (7-8 week age) were shaved on the dorsal skin and 62.5 mg of IMQ cream was applied daily until day 9. Simultaneously, 15 mg of IMQ cream was applied on one ear daily until day 9. Example 1 and Example A were given orally (PO) at 15 mg/kg, BID. Mice were monitored and clinical signs of psoriasis were recorded (PSI score), both on the dorsal skin (erythema, scaling & thickness) and on the IMQ-applied ear (thickness). All data is presented as mean+SEM. For comparison of more than two groups, ANOVA was used. Pearson product moment correlation was used to test for correlations. All statistical analysis was performed using GraphPad Prism™ 10.

human SPPL2a [3] = molecular target: T1, human SPPL2a (Homo sapiens, UniProt Q8TCT8); assay: Western blot assay of TNFα-GFP cleavage in U2OS cells expressing human SPPL2a; type: cell-based; conditions: SPPL2a-U2OS reporter cells, 24 h
T1 construct: expressed in transfected cells; host or cells: U2OS (SPPL2a reporter cell line)
T1 sequence (Q8TCT8 26-520): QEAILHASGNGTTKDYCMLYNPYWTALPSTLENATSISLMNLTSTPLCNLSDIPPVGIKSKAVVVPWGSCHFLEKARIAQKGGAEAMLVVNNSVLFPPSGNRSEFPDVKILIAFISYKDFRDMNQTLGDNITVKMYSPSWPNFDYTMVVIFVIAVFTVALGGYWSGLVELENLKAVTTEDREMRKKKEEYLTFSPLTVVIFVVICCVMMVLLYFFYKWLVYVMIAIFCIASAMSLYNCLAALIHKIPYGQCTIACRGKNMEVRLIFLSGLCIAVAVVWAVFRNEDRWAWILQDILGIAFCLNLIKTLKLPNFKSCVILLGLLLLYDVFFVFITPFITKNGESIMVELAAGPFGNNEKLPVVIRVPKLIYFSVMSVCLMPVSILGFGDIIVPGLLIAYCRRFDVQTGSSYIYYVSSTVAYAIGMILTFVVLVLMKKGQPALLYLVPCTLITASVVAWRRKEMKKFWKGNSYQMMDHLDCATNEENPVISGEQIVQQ
Description: To confirm the cleavage of TNF-α in the U2OS cells that express human SPPL2a, a western blot assay was performed. The same cell line used for the imaging assays were used; these cells express human SPPL2a constitutively and an eGFP-labelled TNFα (aa 1-76) NTF substrate under a doxycycline promotor. In the presence of SPPL2a activity, TNFα-GFP is cleaved at the NTF, resulting in a single 54-56 kDa band (lower MW). If SPPL2a activity is inhibited, TNFα GFP processing is abrogated resulting in a higher molecular weight band (60-62 kDa; complete inhibition) and or both 54-56 kDa and 60-62 kDa bands (incomplete inhibition, smeared appearance) on the blot. Both Example 1 and Example A were added at indicated concentrations, and cells were incubated for 24 h with the inhibitors. Total cell lysated were prepared in ice cold-1X RIPA buffer containing protease inhibitor cocktail (AKR-190, Cell BioLabs). Lysates were collected and quantified for the total protein on NanoDrop using BCA kit (23227, Thermo Scientific). […] To detect cleaved and un-cleaved TNFα-GFP fragments, anti-GFP antibody (AF4240, R&D Biosystems) was used as a primary antibody and detected using anti-goat detection module (DM-006, ProteinSimple) according to the manufacturer's protocol. Data was analyzed using ProteinSimple compass software.

[4] = In vivo epimerization and PK, statements covering all three preclinical models; design: species or system Sprague Dawley rats, beagle dogs, cynomolgus monkeys; conditions: for retention of deuterium in the process of epimerization: all species studied; for in vivo epimerization at the chiral carbon in the 7-membered ring: rat, monkey and dog models, PO; for exposures and PK (other than epimerization) across species: rats, monkeys, dogs
Description: These factors may lead to accumulation and potenial toxicity. The effect on epimerization by substitution at the chiral carbon was tested by comparing Example A, Example 1, and Example 29 in the following preclinical in vivo pharmacokinetic models: Sprague Dawley rats, beagle dogs, and cynomolgus monkeys.
Two groups of male Sprague Dawley rats (n=3 each) received either a single 10 mg/kg PO dose of Example A or Example 1 in a vehicle consisting of 0.5% methylcellulose in water. Blood samples were collected at 0.25, 0.5, 1, 2, 4, and 6 hours postdose.
Male Sprague Dawley rats (n=3 each) received a single 3 mg/kg PO dose of Example 29 in a vehicle consisting of 5% dimethylacetamide (DMAC) in 50 mM citrate buffer w/0.5% methylcellulose. Blood samples were collected at predose, 0.25, 0.5, 1, 2, 4, 6, 8, 12, and 24 hours postdose.
(§1) Three groups of male cynomolgus monkeys (n=2 each) received either a single 3 mg/kg PO dose of Example A, Example 1, or Example 29 in a vehicle consisting of 5% dimethylacetamide (DMAC) in 50 mM citrate buffer w/0.5% methylcellulose. Blood samples were collected at predose, 0.25, 0.5, 1, 2, 3, 4, 6, 8, 12, and 24 hours postdose.
as §1, with “beagle dogs” for “cynomolgus monkeys”, “12, 24” for “12,”, “48” for “24”
All blood samples were collected using EDTA as the anticoagulant and centrifuged to obtain plasma. Plasma concentrations of Example A, Example 1, and their respective diastereomers were determined under non-GLP conditions using standard reverse phase LC-MS/MS bioanalytical methods. The individual plasma concentration-time data was used to determine the area under the curve (AUC) values using GraphPad Prism (v9.3.1).

human SPPL2a [5] = molecular target: T1, human SPPL2a; assay: Nuclear translocation imaging assay for human SPPL2a (SPPL2a reporter U2OS cell line); type: cell-based; conditions: U2OS reporter cells, 24 h incubation
Description: The nuclear translocation imaging assays for human SPPL2a were performed using an SPPL2a reporter U2OS cell line as previously described (Velcicky et al 2018, Zhang et al 2017). These cells stably express human SPPL2a and a doxycycline inducible eGFP TNFα (aa 1-76) NTF fusion protein (SPPL2a substrate). Both Example 1 and Example A were added at indicated concentrations and cells were incubated for 24 h, washed, and fixed. Nuclei were stained with DAPI. Images were acquired on a confocal fluorescence microscope system LSM-800 (Carl Zeiss). Image data was analyzed by using mid-section from Z-stack images of at least 10 individual cells per sample. All data is presented as mean+SEM. Statistical significance was calculated with the ANOVA test using GraphPad Prism™ 10.

Row | Compound | clinical signs of CIA [1] | dorsal PSI scores [2] | ear thickness measurements [2] | clinical signs of psoriasis disease ([2]; compared to vehicle group) | Mouse IL-12 level in plasma ([2]; terminal day) | Mouse TNFα level in plasma ([2]; terminal day) | TNFα-GFP cleavage inhibition (SPPL2a activity inhibition) (human SPPL2a [3]) | retention of deuterium in the process of epimerization [4] | in vivo epimerization at the chiral carbon in the 7-membered ring [4] | exposures and PK (other than epimerization) across species [4] | inhibition of nuclear translocation of TNFα-GFP (human SPPL2a [5])
1 | [2H][C@@]1(NC(=O)[C@H](C)CNC(=O)c2sc(C(=O)NC)nc2C)C(=O)N2CCCN2Cc2ccccc21 [Example 1, N^2,4-Dimethyl-N^5—((R)-2-methyl-3-oxo-3-(((S)-11-oxo-2,3,10,11-tetrahydro-1H,5H-benzo[d]pyrazolo[1,2-a][1,2]diazepin-10-yl-10-d)amino)propyl)thiazole-2,5-dicarboxamide] | significantly reduced | alleviate | alleviate | significantly reduced | significant reduction | significant reduction | SPPL2a activity inhibition; also recorded: Comparable and significant TNFα-GFP cleavage inhibition | retained | reduction of in vivo epimerization; also recorded: observed in all three models | consistent | inhibited; also recorded: comparable and significant TNFα-GFP inhibition of nuclear translocation
2 | [2H]C([2H])([2H])NC(=O)c1nc(C)c(C(=O)NC[C@@H](C)C(=O)N[C@]2([2H])C(=O)N3CCCN3Cc3ccccc32)s1 [Example 29, 4-Methyl-N2-(methyl-d3)—N^5—((R)-2-methyl-3-oxo-3-(((S)-11-oxo-2,3,10,11-tetrahydro-1H,5H-benzo[d]pyrazolo[1,2-a][1,2]diazepin-10-yl-10-d)amino)propyl)thiazole-2,5-dicarboxamide] | – | – | – | – | – | – | – | retained | observed in all three models | consistent | –

From patent US20250263416A1, “SPPL2a INHIBITORS” (Incyte Corporation, priority 2024, published 2025)
